pIC50: −log10 of the molar value.
What follows are compounds tested against T1, Human PIP4K2C (Homo sapiens, UniProt Q8TBX8) (assay: Enzyme binding assay (KINOMEscan), active site-directed competition binding). Conditions: 11-point dose response, duplicate, top concentration 5 micromolar; read-out: Pip4k2c Kd: IC50.
T1 construct: purchased Eurofins DiscoverX 87-0007-1094
T1 sequence (Q8TBX8 1-421): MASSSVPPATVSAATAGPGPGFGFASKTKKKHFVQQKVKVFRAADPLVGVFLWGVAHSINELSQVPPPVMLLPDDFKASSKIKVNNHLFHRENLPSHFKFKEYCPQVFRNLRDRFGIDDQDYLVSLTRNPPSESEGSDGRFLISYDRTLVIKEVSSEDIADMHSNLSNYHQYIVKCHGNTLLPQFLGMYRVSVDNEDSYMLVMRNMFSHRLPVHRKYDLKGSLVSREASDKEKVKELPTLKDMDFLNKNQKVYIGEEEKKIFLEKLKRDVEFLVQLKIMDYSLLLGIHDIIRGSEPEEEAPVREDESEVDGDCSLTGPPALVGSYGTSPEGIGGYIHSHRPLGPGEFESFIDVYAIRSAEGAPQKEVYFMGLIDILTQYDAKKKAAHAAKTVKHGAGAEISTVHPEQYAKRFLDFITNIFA
Experimental: PIP4K2C binding constants disclosed herein were determined using the proprietary Human PIP4K2C binding assay (Catalog number 87-0007-1094, Eurofins DiscoverX, San Diego, CA). This assay measures active site-directed competition binding to an immobilized ligand (see https://doi.org/10.1038/nbt1068, herein incorporated by reference in its entirety). Experiments were conducted using an 11-point dose response curve, in duplicate, with a top starting concentration of 5 micromolar; the Levenberg-Marquardt algorithm was used to fit a Hill equation to dose-response data to calculate IC50 values (see Table 5).

Row | pIC50 | Compound
1 | > 6.30 | CN1CC2(CC(=O)N(c3cncc(Nc4ncc(Cl)c(-c5cccc(-c6ccccc6)c5)n4)c3)C2)C1 [Compound 35, 6-(5-((4-([1,1′-biphenyl]-3-yl)-5-chloropyrimidin-2-yl)amino)pyridin-3-yl)-2-methyl-2,6-diazaspiro[3.4]octan-7-one]
2 | > 6.30 | CC(=O)N1CC2(CC(=O)N(c3cncc(Nc4ncc(Cl)c(-c5cccc(-c6ccccc6)c5)n4)c3)C2)C1 [Compound 36, 6-(5-((4-([1,1′-biphenyl]-3-yl)-5-chloropyrimidin-2-yl)amino)pyridin-3-yl)-2-acetyl-2,6-diazaspiro[3.4]octan-7-one]
3 | > 6.30 | O=C1CCCN1c1cncc(Nc2ncc(Cl)c(N3CCC(N4CCCC4)C3)n2)c1 (stereo not shown) [Compound 37, 1-(5-((4-([1,3′-bipyrrolidin]-1′-yl)-5-chloropyrimidin-2-yl)amino)pyridin-3-yl)pyrrolidin-2-one]
4 | > 6.30 | O=C1CCCN1c1cncc(Nc2ncc(Cl)c(-c3cccc(N4CCCCC4)c3)n2)c1 [Compound 38, 1-(5-((5-chloro-4-(3-(piperidin-1-yl)phenyl)pyrimidin-2-yl)amino)pyridin-3-yl)pyrrolidin-2-one]
5 | > 6.30 | O=C1CCCN1c1cncc(Nc2ncc(Cl)c(-c3cccc(C4CCC4)c3)n2)c1 [Compound 39, 1-(5-((5-chloro-4-(3-cyclobutylphenyl)pyrimidin-2-yl)amino)pyridin-3-yl)pyrrolidin-2-one]
6 | > 6.30 | O=C1CCCN1c1cncc(Nc2ncc(Cl)c(-c3cccc(C4CCCC4)c3)n2)c1 [Compound 40, 1-(5-((5-chloro-4-(3-cyclopentylphenyl)pyrimidin-2-yl)amino)pyridin-3-yl)pyrrolidin-2-one]
7 | > 6.30 | O=C1CCCN1c1cncc(Nc2ncc(Cl)c(N3CCOC(c4ccccc4)C3)n2)c1 (stereo not shown) [Compound 41, 1-[5-[[5-chloro-4-(2-phenylmorpholin-4-yl)pyrimidin-2-yl]amino]-3-pyridyl]pyrrolidin-2-one]
8 | > 6.30 | O=C1CCCN1c1cncc(Nc2ncc(Cl)c(N3CCC(c4ccccc4)C3)n2)c1 (stereo not shown) [Compound 42, 1-(5-((5-chloro-4-(3-phenylpyrrolidin-1-yl)pyrimidin-2-yl)amino)pyridin-3-yl)pyrrolidin-2-one]
9 | > 6.30 | O=C1CCCN1c1cncc(Nc2ncc(Cl)c(N3CCC[C@@H](c4ccccc4)C3)n2)c1 [Compound 43, (S)-1-(5-((5-chloro-4-(3-phenylpiperidin-1-yl)pyrimidin-2-yl)amino)pyridin-3-yl)pyrrolidin-2-one]
10 | > 6.30 | O=C1CCCN1c1cncc(Nc2ncc(Cl)c(N3CCC[C@H](c4ccccc4)C3)n2)c1 [Compound 44, (R)-1-(5-((5-chloro-4-(3-phenylpiperidin-1-yl)pyrimidin-2-yl)amino)pyridin-3yl)pyrrolidin-2-one]
11 | 6.00 to 6.30 | O=C1CCCN1c1cncc(Nc2ncc(Cl)c(N3CCC(C4CCCCC4)C3)n2)c1 (stereo not shown) [Compound 45, 1-(5-((5-chloro-4-(3-cyclohexylpyrrolidin-1-yl)pyrimidin-2-yl)amino)pyridin-3-yl)pyrrolidin-2-one]
12 | > 6.30 | O=C1CCCN1c1cncc(Nc2ncc(Cl)c(-c3cccc(N4CCCC4)c3)n2)c1 [Compound 46, 1-(5-((5-chloro-4-(3-(pyrrolidin-1-yl)phenyl)pyrimidin-2-yl)amino)pyridin-3-yl)pyrrolidin-2-one]
13 | > 6.30 | CN1CCC(n2cc(-c3nc(Nc4cncc(N5CCCC5=O)c4)ncc3Cl)cn2)CC1 [Compound 47, 1-(5-((5-chloro-4-(1-(1-methylpiperidin-4-yl)-1H-pyrazol-4-yl)pyrimidin-2-yl)amino)pyridin-3-yl)pyrrolidin-2-one]
14 | > 6.30 | CC(=O)N1CCC(n2cc(-c3nc(Nc4cncc(N5CCCC5=O)c4)ncc3Cl)cn2)CC1 [Compound 48, 1-(5-((4-(1-(1-acetylpiperidin-4-yl)-1H-pyrazol-4-yl)-5-chloropyrimidin-2-yl)amino)pyridin-3-yl)pyrrolidin-2-one]
15 | > 6.30 | O=C1CCCN1c1cncc(Nc2ncc(Cl)c(-c3cc(-c4ccccc4)[nH]n3)n2)c1 [Compound 49, 1-(5-((5-chloro-4-(5-phenyl-1H-pyrazol-3-yl)pyrimidin-2-yl)amino)pyridin-3-yl)pyrrolidin-2-one]
16 | > 6.30 | O=C1CCCN1c1cncc(Nc2ncc(Cl)c(-c3cc(C4CC4)[nH]n3)n2)c1 [Compound 50, 1-(5-((5-chloro-4-(5-cyclopropyl-1H-pyrazol-3-yl)pyrimidin-2-yl)amino)pyridin-3-yl)pyrrolidin-2-one]
17 | > 6.30 | Cn1cc(-c2nc(Nc3cncc(N4CCCC4=O)c3)ncc2Cl)cn1 [Compound 90, 1-(5-((5-chloro-4-(1-methyl-1H-pyrazol-4-yl)pyrimidin-2-yl)amino)pyridin-3-yl)pyrrolidin-2-one]
18 | > 6.30 | O=C1CCCN1c1cncc(Nc2ncc(Cl)c(-c3cccc(Cl)c3)n2)c1 [Compound 92, 1-(5-((5-chloro-4-(3-chlorophenyl)pyrimidin-2-yl)amino)pyridin-3-yl)pyrrolidin-2-one]
19 | > 6.30 | O=C1CCCN1c1cncc(Nc2ncc(Cl)c(-c3ccc(Cl)cc3)n2)c1 [Compound 93, 1-(5-((5-chloro-4-(4-chlorophenyl)pyrimidin-2-yl)amino)pyridin-3-yl)pyrrolidin-2-one]
20 | > 6.30 | Cc1ccc(-c2nc(Nc3cncc(N4CCCC4=O)c3)ncc2Cl)cc1 [Compound 94, 1-(5-((5-chloro-4-(p-tolyl)pyrimidin-2-yl)amino)pyridin-3-yl)pyrrolidin-2-one]
21 | > 6.30 | O=C1CCCN1c1cncc(Nc2ncc(Cl)c(-c3ccccc3Cl)n2)c1 [Compound 95, 1-(5-((5-chloro-4-(2-chlorophenyl)pyrimidin-2-yl)amino)pyridin-3-yl)pyrrolidin-2-one]
22 | > 6.30 | O=C1CCCN1c1cncc(Nc2ncc(Cl)c(N3CCCCC3)n2)c1 [Compound 96, 1-(5-((5-chloro-4-(piperidin-1-yl)pyrimidin-2-yl)amino)pyridin-3-yl)pyrrolidin-2-one]
23 | > 6.30 | O=C1CCCN1c1cncc(Nc2ncc(Cl)c(C3CCCCC3)n2)c1 [Compound 97, 1-(5-((5-chloro-4-cyclohexylpyrimidin-2-yl)amino)pyridin-3-yl)pyrrolidin-2-one]
24 | > 6.30 | CC(C)c1cccc(-c2nc(Nc3cncc(N4CCCC4=O)c3)ncc2Cl)c1 [Compound 98, 1-(5-((5-chloro-4-(3-isopropylphenyl)pyrimidin-2-yl)amino)pyridin-3-yl)pyrrolidin-2-one]
25 | > 6.30 | O=C1CCCN1c1cncc(Nc2ncc(Cl)c(N3CCCC(O)C3)n2)c1 (stereo not shown) [Compound 99]
26 | > 6.30 | CC1CCCN(c2nc(Nc3cncc(N4CCCC4=O)c3)ncc2Cl)C1 (stereo not shown) [Compound 100, 1-(5-((5-chloro-4-(3-methylpiperidin-1-yl)pyrimidin-2-yl)amino)pyridin-3-yl)pyrrolidin-2-one]
27 | > 6.30 | O=C1CCCN1c1cncc(Nc2ncc(Cl)c(N3CCCC(C(F)(F)F)C3)n2)c1 (stereo not shown) [Compound 101, 1-(5-((5-chloro-4-(3-(trifluoromethyl)piperidin-1-yl)pyrimidin-2-yl)amino)pyridin-3-yl)pyrrolidin-2-one]
28 | > 6.30 | CC1CCN(c2nc(Nc3cncc(N4CCCC4=O)c3)ncc2Cl)CC1 [Compound 102, 1-(5-((5-chloro-4-(4-methylpiperidin-1yl)pyrimidin-2-yl)amino)pyridin-3-yl)pyrrolidin-2-one]

Source: US20260184691A1, “INHIBITORS AND DEGRADERS OF PIP4K PROTEIN” (Larkspur Biosciences, Inc., priority 2022, published 2026)
